Reference: patent publication US6599536B1, “Therapy of estrogen-associated disorders” (Novogen Research Pty Ltd, priority 1998, dated 2003)

Experiments:
[1] = system: human estrogen receptor (hER); details: cited from earlier work
[2] = Plasma and urinary profiles of isoflavones after acute and chronic administration of isoflavone tablets (Promensil composition), HPLC
Description: The plasma and urinary profiles of isoflavones after acute and chronic administration of […] of isoflavones (genistein […], daidzein 0.5 mg, biochanin […], and formononetin 14 mg) in fourteen subjects was analysed. The composition corresponds to the Promensil product (Registered Trade Mark, Novogen Research Pty Ltd, Australia). Venous plasma and urine were collected at intervals for 24 h after which subjects commenced taking two tablets each day for two weeks and repeated plasma samples and urine were collected for a 48 h period after the last does. Plasma and urine isoflavones were assayed by HPLC.

cancer = details: cited from earlier work

Row | SMILES | binding affinity for the hER compared to daidzein [1] | estrogenic potency relative to daidzein [1] | detectability in plasma and urine ([2]; in vivo) | plasma concentrations relative to the methylated precursors ([2]; after acute dosing of the isoflavone tablets) | anti-cancer actions (cancer) | plasma concentrations relative to the methylated precursors ([2]; in vivo)
1 | COc1ccc(-c2coc3cc(O)cc(O)c3c2=O)cc1 [biochanin] | lower binding affinity | about the same estrogenic potency as daidzein | remained detectable in both plasma and urine at all times | – | – | –
2 | O=c1c(-c2ccc(O)cc2)coc2cc(O)cc(O)c12 [genistein] | – | approximately ten fold more estrogenic than daidzein | – | much higher concentrations than their methylated precursors | potent anti-cancer actions | –
3 | O=c1c(-c2ccc(O)cc2)coc2cc(O)ccc12 [daidzein] | – | – | – | – | virtually none | much higher concentrations than their methylated precursors
4 | COc1ccc(-c2coc3cc(O)ccc3c2=O)cc1 [formononetin] | – | – | remained detectable in both plasma and urine at all times | – | – | –
